According to patent US20010018440A1, “L-beta-dioxolane uridine analogs and methods for treating and preventing virus infections” (Yale University and The University of Georgia Research …, priority 1996, published 2001):
≈ marks a conversion by molar mass, not a printed value. Entries after “also recorded” stand apart in the source; their conditions may differ. Where two headings read alike, the source gives them in different places. Values belong to the compound of their own block, whether it stands above or below them.

What was measured:
Ellen strain of VZV = test: Plaque reduction assay for Varicella-Zoster virus in HFF cells; type: cell-based; details: 10 days
Method: (§1) Two days prior to use, human foreskin fibroblast (HiFF) cells were plated into six well plates and incubated at 37° C. with 5% CO2 and 90% humidity. On the date of assay, the drug was made upon MEM with 2% FBS then serially diluted 1:5 in MEM using six concentrations of drug. The initial starting concentration was 100/μg/ml down to 0.03 μg/ml. The virus used for infection was diluted in MEM containing 10% FBS to a desired concentration which gave 20-30 plaques per well. The media was aspirated from the wells and 0.2 ml of virus was added to each well in triplicate with 0.2 ml of media being added to drug toxicity wells. The plates were then incubated for one hour with shaking every fifteen minutes. After incubation, MEM containing the various drug concentrations was added to appropriate wells in a volume of 2.0 ml. Additional media was added again on day five and the cultures incubated for a total of 10 days. At the end of the incubation, the liquid was then aspirated off, stained with 6% neutral red solution for six hours, washed and plaques enumerated using a stereomicroscope. The results are compared with untreated control wells, and EC50 and CC50 values calculated.

[1] = Neutral red uptake cytotoxicity assay; type: cell-based; details: human, uninfected human foreskin fibroblast (HFF) cells
Method: as §1, with “The results are compared with untreated control wells, and EC50 and CC50 values calculated.” left out

EBV [2] = test: Anti-EBV slot blot assay of EBV DNA in H1 cells; type: cell-based, Epstein-Barr virus
Method: A high yield of BBV producing cell line H1 derived from human P3HR1 cells was used in this study. Cells were cultured in RPMIf medium supplemented with 10% dialyzed fetal bovine serum and 100 μg/ml Kanamycin and were grown at 37° C. in a humidified incubator containing 5% CO2.
H1 cells were maintained in logarithmic phase of growth for two days prior to the initiation of treatment. The H1 cells were seeded in 24 well plates at the density of 2×10^5 cells per well in 2 ml of fresh medium with or without drug treatment and were incubated at 37° C. for 5 days. Following the period of drug treatment the cells were pelleted and used to determine the inhibitory effect of drug on EBV DNA by slot blot assay.
Autoradiographfic results were anlayzed by densitometry. […] See, for example, Yao, et al., Antimic. Agzents and Chemo., July, 1993, p.

mitochondrial DNA = test: mt DNA content (toxicity to mitochondria, slot blot rehybridization); type: cell-based, human
Source text: Autoradiographfic results were anlayzed by densitometry. […] See, for example, Yao, et al., Antimic.

cell growth = test: Cytotoxicity (cell growth)
[3] = Stability at different pH's (HPLC); details: for stability (in words): pH 2
Method: In order to explore the possibility of using L-I-OddU and L-Br-OddU orally for the treatment of EBV-associated diseases, its stability at different pH levels is important. L-I-OddU was exposed to different pH solutions as indicated for 3 hr at 37°. The percentage of compound remaining as L-I-OddU was examined using HPLC with a C18 column.

[4] = Pharmacokinetics in BDF1 mice; details: 50 mg/kg po versus ip/iv, preliminary
Method: At the times indicated in FIG. 5, blood was drawn into a heparinized capillary from the retro orbital plexus of female BDF1 mice. The plasma was separated from the formed elements by centrifugation. Then 100 μl of plasma was mixed with an equal volume of 30% trichloracetic acid and kept on ice for 10 minutes. […] The aqueous phase was moved to a clean tube and extracted again with the trioctylamine:freon mixture. Then 50 μl of the neutralized aqueous phase was injected onto a Perkin Elmer HPLC system. The samples were eluted from an Altech C18 column with an isocratic solvent system of water at 2 ml per min. The concentrations of the unknown samples were determined by comparison with standards of known concentrations.

[5] = tested on: lactate accumulation in the medium; test: Lactate accumulation in medium of drug treated cultures
HBV = HBV assay; type: cell-based
Source text: (§2) Plaque reduction assays used for HSV-1, HSV-2 and CMV have been previously described. See, Gao, et al., Antimic. Agents and Chemo., May, 1990, p. 808-812 (HSV-Plaque); Cheng, et al., Proc. Natl. Acad. Sci. USA, vol. 80, 2767-2770 (May 1983) (CMV plaque reduction assay). The methods for testing against EBV, HBV, and HIV were also used as described previously. See, Yao, et al., Antimic. Agents and Chemo., July, 1993, p.

EBV [6] = details: reported in Chu et al. PCT application; cited from earlier work
HSV-1 = test: Plaque reduction assay HSV-1; type: cell-based; details: Human alphaherpesvirus 1; HSV-1, plaque reduction
Source text: as §2

HSV-2 = test: Plaque reduction assay HSV-2; type: cell-based; details: Human alphaherpesvirus 2; HSV-2, plaque reduction
Source text: as §2

CMV = test: Plaque reduction assay CMV; type: cell-based; details: Human betaherpesvirus 5
Source text: as §2

HIV = HIV assay; type: cell-based; details: Human immunodeficiency virus 1
Source text: as §2

[7] = Human alphaherpesvirus 3, 240 h, read-out: EC50
[8] = H1 cells, 5 days, EC50 of Table 2
[9] = human gammaherpesvirus 4, 120 h, H1 cells, 5 days, EC50 of Table 2, read-out: Anti-EBV EC50
[10] = H1 cells, 5 days, EC50 of Table 2, read-out: Anti-EBV EC50
[11] = read-out: Cytotoxicity IC50, cell growth

Structure (SMILES): Nc1nc2c(ncn2COCCO)c(=O)[nH]1 [ACV (acycloguanine), acyclovir, reference compound]
EC50 (Ellen strain of VZV; [7]): 0.6 µg/mL (≈ 2.66 µM)
CC50 at 10 days [1]: > 100 µg/mL

Structure (SMILES): O=c1[nH]c(=O)n(C2COC(CO)O2)cc1Br [D-Br-OddU, reference compound]
Anti-EBV EC50 (EBV [2]; [8]): Inactive

Structure (SMILES): O=c1[nH]c(=O)n(C2COC(CO)O2)cc1I [D-I-OddU, reference compound]
Anti-EBV EC50 (EBV [2]; [8]): Inactive

Structure (SMILES): Nc1nc(O)c2ncn(COC(CO)CO)c2n1 [DHPG, gancyclovir, reference compound]
EC50 (EBV [2]; [9]): 5 µM
mt DNA Content ID50 (mitochondrial DNA): Inactive
IC50 (cell growth; human, H1 cells): 75 µM

Structure (SMILES): O=c1[nH]c(=O)n([C@@H]2CO[C@H](CO)O2)cc1Br [L-Br-OddU]
anti-EBV activity (in words) (EBV [2]): most potent
EC50 (EBV [2]; [10]): 0.2 µM
EC50 (EBV [2]; H1 cells, 5 days, second EC50 column of Table 2, read-out: Anti-EBV EC50): 2 µM
mt DNA Content ID50 (mitochondrial DNA): Inactive
% Remaining ([3]; pH1, 3 hr at 37°): 105%
stability (in words) [3]: stable
EC50 (Ellen strain of VZV): 0.8 µg/mL (≈ 2.73 µM)
IC50 (cell growth; [11]): > 100 µM
efficiency of oral uptake [4]: about 60%
induction of lactate accumulation in the medium [5]: lack of induction

Structure (SMILES): O=c1[nH]c(=O)n([C@@H]2CO[C@H](CO)O2)cc1C(F)(F)F [L-CF3-OddU, (2S,4S)-1-[2-(Etydroxymethyl)-1,3-dioxolan-4-yl]-5-trifluoromethyluracil]
EC50 (EBV [2]; [10]): 3 µM
mt DNA Content ID50 (mitochondrial DNA): Inactive
IC50 (cell growth; [11]): > 100 µM

Structure (SMILES): O=c1[nH]c(=O)n([C@@H]2CO[C@H](CO)O2)cc1Cl [L-CI-OddU, (2S,4S)-1-[2-(Hydroxymethyl)-1,3-dioxolan-4-yl]-5-chlorouracil]
EC50 (EBV [2]; [9]): 3 µM
mt DNA Content ID50 (mitochondrial DNA): Inactive
EC50 (Ellen strain of VZV; [7]): 27.9 µg/mL (≈ 112 µM)
CC50 at 10 days [1]: > 100 µg/mL
IC50 (cell growth; human, H1 cells): > 100 µM

Structure (SMILES): Cc1cn([C@H]2O[C@@H](CO)[C@H](O)[C@H]2F)c(=O)[nH]c1=O [L-FMAU, 2′-fluoro-5-methyl-β-L-arabinofuranosyluridine, reference compound]
anti-EBV activity (in words) (EBV [2]): active
activity against HBV (in words) (HBV): active
activity against EBV (PCT/US95/01253) (EBV [6]): good activity

The next lines start with results.

EC50 (EBV [2]; [9]): 50 µM
Structure (SMILES): O=c1[nH]c(=O)n([C@@H]2CO[C@H](CO)O2)cc1F [L-F-OddU, (2S,4S)-1-[2-(Hydroxymethyl)-1,3-dioxolan-4-yl]-5 fluorouracil]
mt DNA Content ID50 (mitochondrial DNA): Inactive
IC50 (cell growth; human, H1 cells): > 100 µM

EC50 against EBV relative to L-FMAU (EBV [2]; comparison with L-FMAU): at least four times lower than L-FMAU
EC50 (EBV [2]; [9]): 0.1 µM
EC50 (EBV [2]; human gammaherpesvirus 4, 120 h, H1 cells, 5 days, second EC50 column of Table 2, read-out: Anti-EBV EC50): 0.4 µM
EC50 (EBV [2]; human gammaherpesvirus 4, EBV, Table 3, read-out: EC50): 0.1 µM
EC50 (HSV-1): 50 µM
EC50 (HSV-2): > 50 µM
EC50 (CMV): > 10 µM
EC50 (HBV; Hepatitis B virus, HBV): > 10 µM
EC50 (HIV): > 100 µM
% Remaining ([3]; pH1, 3 hr at 37°): 102%
stability (in words) [3]: stable
% Remaining ([3]; pH2, 3 hr at 37°): 102%
% Remaining ([3]; pH5, 3 hr at 37°): 102%
% Remaining ([3]; pH7, 3 hr at 37°): 99%
% Remaining ([3]; pH9, 3 hr at 37°): 100%
EC50 (Ellen strain of VZV; [7]): 4.2 µg/mL (≈ 12.4 µM)
induction of lactate accumulation in the medium [5]: lack of induction
Structure (SMILES): O=c1[nH]c(=O)n([C@@H]2CO[C@H](CO)O2)cc1I [L-I-OddU, (2S,4S)-1-[2-(Hydroxymethyl)-1,3-dioxolan-4-yl]-5-iodouracil]
anti-EBV activity (in words) (EBV [2]): most potent; also recorded: slightly more potent than L-Br-OddU
mt DNA Content ID50 (mitochondrial DNA): Inactive
activity against HBV (in words) (HBV): little activity
CC50 at 10 days [1]: > 100 µg/mL
IC50 (cell growth; human, H1 cells): > 100 µM

EC50 (EBV [2]; [9]): > 50 µM
Structure (SMILES): O=c1ccn([C@@H]2CO[C@H](CO)O2)c(=O)[nH]1 [L-OddU, (2S,4S)-1-[2-(Hydroxymethyl)-1,3-dioxolan-4-yl]uracil]
mt DNA Content ID50 (mitochondrial DNA): Inactive
IC50 (cell growth; human, H1 cells): > 100 µM

Anti-EBV EC50 (EBV [2]; [8]): Inactive
Structure (SMILES): Nc1ccn([C@H]2CC[C@@H](CO)O2)c(=O)n1 [ddC, reference compound]
IC50 (mitochondrial DNA; read-out: mt DNA Content ID50): 0.02 µM
IC50 (cell growth; [11]): 20 µM
